In ChEMBL document CHEMBL1138616, “Molecular design, synthesis and docking study of benz[b]oxepines and 12-oxobenzo[c]phenanthridinones as topoisomerase 1 inhibitors” (Bioorg Med Chem Lett, 2009):
Activity calls are given as the source filed them. No cut-off for these calls is given here.

Key:
[1] = molecular target: T1, DNA topoisomerase 1 (Homo sapiens) (UniProt P11387); experiment: Inhibition of DNA topoisomerase 1 assessed as relaxation of supercoiled Escherichia coli pBR322 DNA at 100 uM
T1 sequence (whole entry): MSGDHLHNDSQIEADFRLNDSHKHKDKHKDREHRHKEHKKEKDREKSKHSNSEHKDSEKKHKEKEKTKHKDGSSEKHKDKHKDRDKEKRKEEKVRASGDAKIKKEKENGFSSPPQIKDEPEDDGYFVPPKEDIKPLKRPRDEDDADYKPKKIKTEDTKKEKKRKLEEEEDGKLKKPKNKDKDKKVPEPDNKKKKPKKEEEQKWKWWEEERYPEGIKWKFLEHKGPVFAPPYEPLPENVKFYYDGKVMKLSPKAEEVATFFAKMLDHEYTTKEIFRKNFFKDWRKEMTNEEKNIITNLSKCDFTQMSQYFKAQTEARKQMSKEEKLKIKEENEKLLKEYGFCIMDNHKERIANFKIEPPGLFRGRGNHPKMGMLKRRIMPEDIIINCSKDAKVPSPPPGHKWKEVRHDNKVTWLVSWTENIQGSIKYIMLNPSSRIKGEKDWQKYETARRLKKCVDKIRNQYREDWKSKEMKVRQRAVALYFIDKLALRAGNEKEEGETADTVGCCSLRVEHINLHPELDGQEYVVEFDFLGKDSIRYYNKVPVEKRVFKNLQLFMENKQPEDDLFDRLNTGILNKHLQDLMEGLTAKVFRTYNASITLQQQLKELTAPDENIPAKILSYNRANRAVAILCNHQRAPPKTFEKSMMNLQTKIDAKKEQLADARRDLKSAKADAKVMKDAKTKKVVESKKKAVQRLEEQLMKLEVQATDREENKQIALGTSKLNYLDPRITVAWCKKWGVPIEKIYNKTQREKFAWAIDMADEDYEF

[2] = system: HeLa; experiment: Cytotoxicity against human HeLa cells by sulforhodamine B assay; assay type: functional, cell-based
[3] = system: A549; experiment: Cytotoxicity against human A549 cells by sulforhodamine B assay; assay type: functional, cell-based
[4] = system: HL-60; experiment: Cytotoxicity against human HL60 cells by sulforhodamine B assay; assay type: functional, cell-based

Row | Compound | inhibition [1] | IC50 [2] | IC50 [3] | IC50 [4]
1 | Cc1ccc2c3c(n(C)c(=O)c2c1)-c1ccccc1OCC3 | 11.9% | 8.76 µM | 30.3 µM | 14.1 µM
2 | COc1ccc(Cn2c(-c3ccccc3O)c(Br)c3ccccc3c2=O)cc1 | inactive | 36.8 µM | 71.2 µM | 31.6 µM
3 | COc1cc2c3c(n(C)c(=O)c2cc1OC)-c1ccccc1OCC3 | 98.2% | 38.1 µM | 73 µM | 34.8 µM
4 | C=COc1ccccc1-c1c(Br)c2cc(C)ccc2c(=O)n1Cc1ccc(OC)cc1 | inactive | 14.8 µM | 67.8 µM | 29.2 µM
5 | COCOc1ccccc1-c1c(Br)c2ccc(C)cc2c(=O)n1C | inactive | 17.8 µM | 82 µM | 17.2 µM
6 | COCOc1ccccc1-c1cc2ccccc2c(=O)[nH]1 | inactive | 0.62 µM | 23.6 µM | 0.62 µM
7 | CC1Oc2ccccc2-c2c1c1ccccc1c(=O)n2C (stereo unspecified) | inactive | 40.1 µM | 65.5 µM | 30.1 µM
8 | C=COc1ccccc1-c1c(Br)c2ccccc2c(=O)n1Cc1ccc(OC)cc1 | inactive | 36.5 µM | > 100 µM | 59.5 µM
9 | CC[C@@]1(O)C(=O)OCc2c1cc1n(c2=O)Cc2cc3ccccc3nc2-1 [CAMPTOTHECIN] | – | 0.072 µM | 0.058 µM | 0.089 µM
10 | COc1ccc(Cn2c3c(c4cc(C)ccc4c2=O)CCOc2ccccc2-3)cc1 | inactive | 10.3 µM | > 100 µM | 9.26 µM
11 | COCOc1ccccc1-c1cc2cc(C)ccc2c(=O)[nH]1 | inactive | 0.17 µM | > 100 µM | 0.16 µM
12 | Cn1c2c(c3ccccc3c1=O)CCOc1ccccc1-2 | inactive | 19.7 µM | 66.8 µM | 37.6 µM
13 | COCOc1ccccc1-c1cc2cc(C)ccc2c(=O)n1C | inactive | 28.6 µM | 99.8 µM | 14.3 µM
14 | Cc1ccc2c(=O)n(C)c3c(c2c1)C(C)Oc1ccccc1-3 (stereo unspecified) | 30.4% | 28.3 µM | 46 µM | 29.1 µM

Now from value to compound, other results behind:

Row | inhibition [1] | Compound | IC50 [2] | IC50 [3] | IC50 [4]
15 | inactive | COCOc1ccccc1-c1cc2ccccc2c(=O)n1C | 64.6 µM | > 100 µM | 59.5 µM
16 | 5.3% | COc1cc2c3c(n(C)c(=O)c2cc1OC)-c1ccccc1OC3C (stereo unspecified) | 9.02 µM | 13.8 µM | 8.54 µM
17 | 40.7% | COCOc1ccccc1-c1c(Br)c2cc(OC)c(OC)cc2c(=O)n1C | 99.3 µM | > 100 µM | 37.8 µM
18 | inactive | Cc1ccc2c(=O)n(C)c3c(c2c1)CCOc1ccccc1-3 | 41.6 µM | 61.3 µM | 33.6 µM
19 | inactive | Cc1ccc2c3c(n(C)c(=O)c2c1)-c1ccccc1OC3C (stereo unspecified) | 21.9 µM | 66.9 µM | –
20 | 94.5% | COc1ccc(Cn2c3c(c4ccccc4c2=O)CCOc2ccccc2-3)cc1 | 4.78 µM | 11 µM | 4.49 µM
21 | inactive | COc1ccc(Cn2c3c(c4ccc(C)cc4c2=O)CCOc2ccccc2-3)cc1 | 4.54 µM | 4.56 µM | 4.4 µM
22 | inactive | COc1ccc(Cn2c(-c3ccccc3O)c(Br)c3cc(C)ccc3c2=O)cc1 | 20.4 µM | 53 µM | 24.4 µM
